From ChEMBL document CHEMBL4673219, “Novel 5,6-disubstituted pyrrolo[2,3-d]pyrimidine derivatives as broad spectrum antiproliferative agents: Synthesis, cell based assays, kinase profile and molecular docking study” (Bioorg Med Chem, 2018)

Assays:
ACHN = assay: Growth inhibition of human ACHN cells assessed as growth percentage at 1 uM incubated for 48 hrs by sulforhodamine B assay relative to control; type: functional; details: read-out: Activity
SK-MEL-28 [1] = assay: Growth inhibition of human SK-MEL-28 cells assessed as growth percentage at 1 uM incubated for 48 hrs by sulforhodamine B assay relative to control; type: functional; details: read-out: Activity
SK-MEL-28 [2] = assay: Growth inhibition of human SK-MEL-28 cells assessed as growth percentage at 100 uM incubated for 48 hrs by sulforhodamine B assay relative to control; type: functional; details: read-out: Activity
SK-MEL-28 [3] = assay: Growth inhibition of human SK-MEL-28 cells assessed as growth percentage at 0.01 uM incubated for 48 hrs by sulforhodamine B assay relative to control; type: functional; details: read-out: Activity
SK-MEL-2 [4] = assay: Growth inhibition of human SK-MEL-2 cells assessed as growth percentage at 100 uM incubated for 48 hrs by sulforhodamine B assay relative to control; type: functional; details: read-out: Activity
SK-MEL-2 [5] = assay: Growth inhibition of human SK-MEL-2 cells assessed as growth percentage at 1 uM incubated for 48 hrs by sulforhodamine B assay relative to control; type: functional; details: read-out: Activity
SK-MEL-2 [6] = assay: Growth inhibition of human SK-MEL-2 cells assessed as growth percentage at 0.1 uM incubated for 48 hrs by sulforhodamine B assay relative to control; type: functional; details: read-out: Activity
SK-MEL-2 [7] = assay: Growth inhibition of human SK-MEL-2 cells assessed as growth percentage at 0.01 uM incubated for 48 hrs by sulforhodamine B assay relative to control; type: functional; details: read-out: Activity
OVCAR-5 [8] = assay: Growth inhibition of human OVCAR-5 cells assessed as growth percentage at 100 uM incubated for 48 hrs by sulforhodamine B assay relative to control; type: functional; details: read-out: Activity
SF-539 [9] = assay: Growth inhibition of human SF-539 cells assessed as growth percentage at 100 uM incubated for 48 hrs by sulforhodamine B assay relative to control; type: functional; details: read-out: Activity
OVCAR-5 [10] = assay: Growth inhibition of human OVCAR-5 cells assessed as growth percentage at 1 uM incubated for 48 hrs by sulforhodamine B assay relative to control; type: functional; details: read-out: Activity
SF-539 [11] = assay: Growth inhibition of human SF-539 cells assessed as growth percentage at 1 uM incubated for 48 hrs by sulforhodamine B assay relative to control; type: functional; details: read-out: Activity
OVCAR-5 [12] = assay: Growth inhibition of human OVCAR-5 cells assessed as growth percentage at 0.1 uM incubated for 48 hrs by sulforhodamine B assay relative to control; type: functional; details: read-out: Activity
SF-539 [13] = assay: Growth inhibition of human SF-539 cells assessed as growth percentage at 0.1 uM incubated for 48 hrs by sulforhodamine B assay relative to control; type: functional; details: read-out: Activity
OVCAR-5 [14] = assay: Growth inhibition of human OVCAR-5 cells assessed as growth percentage at 0.01 uM incubated for 48 hrs by sulforhodamine B assay relative to control; type: functional; details: read-out: Activity
SF-539 [15] = assay: Growth inhibition of human SF-539 cells assessed as growth percentage at 0.01 uM incubated for 48 hrs by sulforhodamine B assay relative to control; type: functional; details: read-out: Activity
[16] = Tmax in Sprague-Dawley rat at 10 mg/kg, po measured up to 24 hrs by LC-MS/MS analysis; type: ADME, organism-based; details: in vivo
[17] = Terminal half life in Sprague-Dawley rat at 10 mg/kg, po measured up to 24 hrs by LC-MS/MS analysis; type: ADME, organism-based; details: in vivo, read-out: beta t1/2
[18] = AUC (0 to infinity) in Sprague-Dawley rat at 10 mg/kg, po measured up to 24 hrs by LC-MS/MS analysis; type: ADME, organism-based; parameters: route oral, dose 10 mg/kg, time <=24; details: in vivo
[19] = Oral bioavailability in Sprague-Dawley rat at 10 mg/kg measured up to 24 hrs by LC-MS/MS analysis; type: ADME, organism-based; details: in vivo
[20] = Clearance in Sprague-Dawley rat at 10 mg/kg, iv measured up to 24 hrs by LC-MS/MS analysis; type: ADME, organism-based; details: in vivo
[21] = Terminal half life in Sprague-Dawley rat at 10 mg/kg, iv measured up to 24 hrs by LC-MS/MS analysis; type: ADME, organism-based; details: in vivo, read-out: beta t1/2
[22] = AUC (0 to infinity) in Sprague-Dawley rat at 10 mg/kg, iv measured up to 24 hrs by LC-MS/MS analysis; type: ADME, organism-based; parameters: route intravenous, dose 10 mg/kg, time <=24; details: in vivo
[23] = target: Tyrosine-protein kinase Yes (Homo sapiens) (UniProt P07947); assay: Inhibition of human YES1 at 10 uM using myelin basic protein as substrate incubated for 40 mins in presence of [gamma33P]ATP by scintillation counting method relative to control
Tyrosine-protein kinase Yes (Homo sapiens), sequence (P07947 2-543 limits assumed): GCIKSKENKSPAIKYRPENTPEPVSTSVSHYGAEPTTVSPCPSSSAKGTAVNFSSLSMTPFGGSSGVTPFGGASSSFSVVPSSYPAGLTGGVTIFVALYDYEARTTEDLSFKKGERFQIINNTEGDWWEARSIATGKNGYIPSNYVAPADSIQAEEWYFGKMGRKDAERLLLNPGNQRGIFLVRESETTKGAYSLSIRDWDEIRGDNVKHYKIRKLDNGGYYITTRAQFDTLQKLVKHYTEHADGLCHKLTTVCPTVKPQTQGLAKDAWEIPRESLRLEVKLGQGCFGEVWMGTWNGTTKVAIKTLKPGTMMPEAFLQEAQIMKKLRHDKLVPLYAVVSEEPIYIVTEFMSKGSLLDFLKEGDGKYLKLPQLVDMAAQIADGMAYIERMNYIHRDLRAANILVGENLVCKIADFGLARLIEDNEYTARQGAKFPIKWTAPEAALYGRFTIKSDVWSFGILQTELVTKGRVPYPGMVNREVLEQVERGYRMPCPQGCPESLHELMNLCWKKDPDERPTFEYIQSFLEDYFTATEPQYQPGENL

[24] = target: Tyrosine-protein kinase Lyn (Homo sapiens) (UniProt P07948); assay: Inhibition of human LYN at 10 uM using myelin basic protein as substrate incubated for 40 mins in presence of [gamma33P]ATP by scintillation counting method relative to control
Tyrosine-protein kinase Lyn (Homo sapiens), sequence (P07948 2-512 limits assumed): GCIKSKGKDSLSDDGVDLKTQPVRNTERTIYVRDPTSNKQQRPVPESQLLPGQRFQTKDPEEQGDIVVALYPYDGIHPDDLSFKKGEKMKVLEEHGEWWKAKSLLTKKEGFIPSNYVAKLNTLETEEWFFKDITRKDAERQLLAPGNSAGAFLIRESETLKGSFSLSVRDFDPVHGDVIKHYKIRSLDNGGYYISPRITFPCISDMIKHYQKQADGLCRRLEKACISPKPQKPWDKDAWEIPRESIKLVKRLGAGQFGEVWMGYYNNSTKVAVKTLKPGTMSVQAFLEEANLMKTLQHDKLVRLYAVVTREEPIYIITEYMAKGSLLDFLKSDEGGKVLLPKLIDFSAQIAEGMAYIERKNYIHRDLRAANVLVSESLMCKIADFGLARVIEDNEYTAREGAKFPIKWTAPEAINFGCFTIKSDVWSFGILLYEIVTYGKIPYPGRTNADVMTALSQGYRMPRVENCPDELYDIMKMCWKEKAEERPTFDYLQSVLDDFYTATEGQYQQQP

[25] = target: Insulin-like growth factor 1 receptor (Homo sapiens) (UniProt P08069); assay: Inhibition of human IGF1R at 10 uM using myelin basic protein as substrate incubated for 40 mins in presence of [gamma33P]ATP by scintillation counting method relative to control
Insulin-like growth factor 1 receptor (Homo sapiens), sequence (P08069 31-736 limits assumed): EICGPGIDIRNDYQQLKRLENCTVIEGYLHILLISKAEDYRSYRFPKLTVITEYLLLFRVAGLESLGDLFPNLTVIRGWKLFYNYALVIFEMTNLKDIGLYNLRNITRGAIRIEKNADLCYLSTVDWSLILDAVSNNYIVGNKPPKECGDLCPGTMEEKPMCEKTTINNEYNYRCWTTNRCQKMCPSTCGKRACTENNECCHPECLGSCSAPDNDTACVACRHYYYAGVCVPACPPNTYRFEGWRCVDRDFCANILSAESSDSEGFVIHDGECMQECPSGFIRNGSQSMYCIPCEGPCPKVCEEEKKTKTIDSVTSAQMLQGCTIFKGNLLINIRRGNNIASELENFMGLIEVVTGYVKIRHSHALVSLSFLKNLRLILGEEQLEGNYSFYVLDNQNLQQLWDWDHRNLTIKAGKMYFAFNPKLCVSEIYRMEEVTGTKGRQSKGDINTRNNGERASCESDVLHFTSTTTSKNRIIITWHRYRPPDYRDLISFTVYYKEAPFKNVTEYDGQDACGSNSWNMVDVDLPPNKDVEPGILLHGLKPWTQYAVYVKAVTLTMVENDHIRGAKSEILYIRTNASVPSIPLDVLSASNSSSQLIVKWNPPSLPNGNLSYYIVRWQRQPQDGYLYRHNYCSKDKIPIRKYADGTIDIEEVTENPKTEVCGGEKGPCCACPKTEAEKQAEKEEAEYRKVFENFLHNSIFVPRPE
Insulin-like growth factor 1 receptor (Homo sapiens), sequence (P08069 741-1367 limits assumed): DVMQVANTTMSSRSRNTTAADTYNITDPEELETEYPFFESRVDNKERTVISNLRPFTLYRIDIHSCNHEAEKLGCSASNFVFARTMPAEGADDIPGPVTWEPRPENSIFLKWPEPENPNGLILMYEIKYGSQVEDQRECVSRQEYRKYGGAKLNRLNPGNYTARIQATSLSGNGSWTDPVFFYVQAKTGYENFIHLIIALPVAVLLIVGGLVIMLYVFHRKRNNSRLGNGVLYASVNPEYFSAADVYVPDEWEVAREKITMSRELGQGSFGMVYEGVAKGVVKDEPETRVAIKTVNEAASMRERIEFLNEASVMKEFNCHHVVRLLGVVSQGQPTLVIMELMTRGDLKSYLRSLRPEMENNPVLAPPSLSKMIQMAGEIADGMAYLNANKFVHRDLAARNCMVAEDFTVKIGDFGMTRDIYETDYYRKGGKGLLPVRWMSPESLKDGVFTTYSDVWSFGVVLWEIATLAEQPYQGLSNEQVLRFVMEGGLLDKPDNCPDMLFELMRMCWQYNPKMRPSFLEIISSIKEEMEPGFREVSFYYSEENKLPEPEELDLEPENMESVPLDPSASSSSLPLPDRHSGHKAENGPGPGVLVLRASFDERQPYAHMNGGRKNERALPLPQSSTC

[26] = target: Macrophage colony-stimulating factor 1 receptor (Homo sapiens) (UniProt P07333); assay: Inhibition of human FMS at 10 uM using myelin basic protein as substrate incubated for 40 mins in presence of [gamma33P]ATP by scintillation counting method relative to control
Macrophage colony-stimulating factor 1 receptor (Homo sapiens), sequence (P07333 whole entry): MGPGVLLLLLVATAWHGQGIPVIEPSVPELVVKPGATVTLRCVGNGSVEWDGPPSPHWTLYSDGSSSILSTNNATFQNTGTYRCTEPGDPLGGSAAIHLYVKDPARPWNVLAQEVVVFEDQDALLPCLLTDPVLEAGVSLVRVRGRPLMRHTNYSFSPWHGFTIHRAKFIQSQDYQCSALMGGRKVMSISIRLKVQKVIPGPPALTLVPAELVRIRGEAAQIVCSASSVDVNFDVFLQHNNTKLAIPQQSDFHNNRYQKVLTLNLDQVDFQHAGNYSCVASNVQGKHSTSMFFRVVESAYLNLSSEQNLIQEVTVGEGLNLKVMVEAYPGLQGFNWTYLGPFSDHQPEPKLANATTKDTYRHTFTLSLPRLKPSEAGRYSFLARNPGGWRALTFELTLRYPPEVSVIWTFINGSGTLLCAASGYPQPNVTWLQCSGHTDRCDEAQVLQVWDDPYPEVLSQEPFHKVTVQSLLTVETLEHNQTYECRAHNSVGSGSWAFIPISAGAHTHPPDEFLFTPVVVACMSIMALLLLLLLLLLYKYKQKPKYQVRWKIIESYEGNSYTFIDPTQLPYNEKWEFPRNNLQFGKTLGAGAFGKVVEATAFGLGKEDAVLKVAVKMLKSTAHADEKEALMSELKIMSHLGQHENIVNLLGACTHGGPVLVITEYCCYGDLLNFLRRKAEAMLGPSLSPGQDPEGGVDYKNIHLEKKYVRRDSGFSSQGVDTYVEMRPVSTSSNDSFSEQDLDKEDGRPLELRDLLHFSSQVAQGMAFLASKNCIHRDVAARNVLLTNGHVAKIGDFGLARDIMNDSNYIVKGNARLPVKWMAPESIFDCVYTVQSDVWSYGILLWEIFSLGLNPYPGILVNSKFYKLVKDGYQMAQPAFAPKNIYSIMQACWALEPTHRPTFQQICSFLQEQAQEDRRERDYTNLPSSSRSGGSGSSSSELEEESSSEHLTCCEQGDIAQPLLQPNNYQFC

A498 = assay: Growth inhibition of human A498 cells incubated for 48 hrs by sulforhodamine B assay; type: functional
HL-60(TB) [27] = assay: Growth inhibition of human HL-60(TB) cells assessed as growth percentage at 0.01 uM incubated for 48 hrs by sulforhodamine B assay relative to control; type: functional; details: read-out: Activity
HL-60(TB) [28] = assay: Growth inhibition of human HL-60(TB) cells assessed as growth percentage at 0.1 uM incubated for 48 hrs by sulforhodamine B assay relative to control; type: functional; details: read-out: Activity
HL-60(TB) [29] = assay: Growth inhibition of human HL-60(TB) cells assessed as growth percentage at 100 uM incubated for 48 hrs by sulforhodamine B assay relative to control; type: functional; details: read-out: Activity

## Nc1nc2[nH]c(CN3CCN(c4cc(Cl)cc(Cl)c4)CC3)c(CN3CCN(c4cc(Cl)cc(Cl)c4)CC3)c2c(=O)[nH]1
ACHN
  growth at 1 µM: 98%
SK-MEL-28 [1]
  growth at 1 µM: 91%
SK-MEL-28 [2]
  growth at 100 µM: -42%
SK-MEL-28 [3]
  growth at 0.01 µM: 94%
SK-MEL-2 [4]
  growth at 100 µM: -48%
SK-MEL-2 [5]
  growth at 1 µM: 114%
SK-MEL-2 [6]
  growth at 0.1 µM: 115%
SK-MEL-2 [7]
  growth at 0.01 µM: 109%
OVCAR-5 [8]
  growth at 100 µM: -35%
SF-539 [9]
  growth at 100 µM: -55%
OVCAR-5 [10]
  growth at 1 µM: 89%
SF-539 [11]
  growth at 1 µM: 93%
OVCAR-5 [12]
  growth at 0.1 µM: 94%
SF-539 [13]
  growth at 0.1 µM: 94%
OVCAR-5 [14]
  growth at 0.01 µM: 87%
SF-539 [15]
  growth at 0.01 µM: 89%

## CCCCCCCC(=O)Nc1nc2[nH]c(CN3CCN(Cc4cccc(F)c4)CC3)c(CN3CCN(Cc4cccc(F)c4)CC3)c2c(=O)[nH]1
[16]
  Tmax: 2.25 h
[17]
  half-life: 1.66 h
[18]
  AUC(0-inf): 61.7 ng·h/mL
[19]
  bioavailability: 12.3%
[20]
  clearance: 342 mL/min/kg
[21]
  half-life: 11.7 h
[22]
  AUC(0-inf): 498 ng·h/mL
[23]
  inhibition: 45.5%
[24]
  inhibition: 70.3%
[25]
  inhibition: 70.3%
[26]
  inhibition: 70.3%
A498; A498
  GI50: 1250 nM
  TGI: 2530 nM
A498; A498, 48 h, read-out: LC50 (the source's name)
  CC50: 5100 nM
HL-60(TB) [27]
  growth at 0.01 µM: 98%
HL-60(TB) [28]
  growth at 0.1 µM: 99%
HL-60(TB) [29]
  growth at 100 µM: -45%
